Measurements taken from patent US20060172019A1 (priority 2003, published 2006).
“Also recorded” adds a separate entry of the source. Like-named read-outs stand apart in the source and are kept apart here.

Columns and labels:
[1] = tested on: J774 murine macrophage cells; test: Alamar Blue J774 murine macrophage viability assay; format: cell-based; conditions: for IC50: Mus musculus; for effect on J774 survival: data not shown
Experimental: J774 cells were plated at 10^4 cells per well in 150 μL αMEM (α Modified Eagle Medium) in 96-well plates and grown overnight. The next day, compounds were added to the cultures, and culture was continued for another 72 hours.
Alamar Blue is an oxidation-reduction sensitive indicator. The dye itself is in the oxidised state, which is blue and non-fluorescent. The dye can accept electrons from reducing species, such as NADPH and FADH, to form a reduced dye species, which is red and fluorescent. Thus the transformation from oxidised form to reduced form can be measured by fluorimetric or colourimetric means. For fluorescence measurements, 530-560 nm excitation and 590 nm emission wavelengths are typically used. For colourimetric measurements, absorbance is measured at 570 nm (reduced form) and 600 nm (oxidised form) and a simple calculation performed to determine the relative quantities of the two species.
A high ratio of the reducing species, NADPH and FADH, to the corresponding oxidised species, NADP and FAD, is an indicator that cells are proliferating and viable. A low ratio indicates cells that are quiescent or non-viable.
Briefly, Alamar Blue (Biosource International) was added undiluted to the each well (1:10 v/v, 15 μL). The plate was incubated at 37° C. for 3-4 hours and the fluorescence was measured at 570 nm, with a 25 nm bandwidth. A high reading indicated cells with normal viability, and a low reading indicates cells that have been damaged and are no longer proliferating normally.
In general, compounds studied were made up as 100 mM solutions in DMSO. These stock solutions were then diluted 100 or 1000× in culture medium (αMEM).

CB1 receptor [2] = target: T1, CB1 receptor (Homo sapiens, UniProt P21554); conditions: cited from earlier work
T1 sequence (P21554 whole entry): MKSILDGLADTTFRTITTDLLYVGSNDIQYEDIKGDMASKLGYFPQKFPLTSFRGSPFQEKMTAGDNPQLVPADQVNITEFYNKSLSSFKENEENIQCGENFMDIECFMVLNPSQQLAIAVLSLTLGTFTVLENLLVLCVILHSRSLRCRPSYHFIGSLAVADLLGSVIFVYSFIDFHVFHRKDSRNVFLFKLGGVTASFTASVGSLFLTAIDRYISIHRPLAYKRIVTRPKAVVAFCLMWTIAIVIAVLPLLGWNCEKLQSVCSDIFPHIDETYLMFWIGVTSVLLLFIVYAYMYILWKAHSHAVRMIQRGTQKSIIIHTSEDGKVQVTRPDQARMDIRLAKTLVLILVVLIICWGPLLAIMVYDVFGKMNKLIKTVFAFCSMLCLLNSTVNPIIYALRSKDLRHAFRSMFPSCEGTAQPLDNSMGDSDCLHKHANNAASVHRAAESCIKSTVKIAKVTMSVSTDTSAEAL

[3] = tested on: ovariectomy induced bone loss; test: Ovariectomy induced bone loss, peripheral quantitative computed tomography; format: in vivo, C57/BL6 mice; conditions: for ovariectomy-induced bone loss in a mouse model: in vivo
rabbit osteoclasts = test: Rabbit osteoclast culture; format: cell-based
Experimental: Osteoclast survival and activity was studied in cultures of rabbit osteoclasts. Osteoclasts were isolated from the long bones of 2-3 day-old rabbits as described previously (see, e.g., Coxon et al., 2000), plated on dentine slices and cultured in αMEM supplemented with 10% FCS and penicillin and streptomycin at 37° C. in 5% CO2 for 48 hours in the presence or absence of test compounds.

CB1 receptor [4] = target: T1, CB1 receptor; conditions: read-out: Ki (nM) CB1, cited from earlier work
CB2 receptor [5] = target: T2, CB2 receptor (Homo sapiens, UniProt P34972); conditions: cited from earlier work; for Classification CB2: Table 1; for CB receptor function (CB2): Table 2
T2 sequence (P34972 whole entry): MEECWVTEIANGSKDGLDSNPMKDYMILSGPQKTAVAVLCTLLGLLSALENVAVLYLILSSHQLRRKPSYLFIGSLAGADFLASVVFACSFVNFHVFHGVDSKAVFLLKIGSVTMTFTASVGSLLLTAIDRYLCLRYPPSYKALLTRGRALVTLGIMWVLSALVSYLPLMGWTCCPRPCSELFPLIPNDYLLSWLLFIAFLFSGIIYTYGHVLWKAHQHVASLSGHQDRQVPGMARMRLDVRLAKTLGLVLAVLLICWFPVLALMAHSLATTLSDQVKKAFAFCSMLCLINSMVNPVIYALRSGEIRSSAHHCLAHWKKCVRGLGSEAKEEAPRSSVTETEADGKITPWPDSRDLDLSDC

CB2 receptor [6] = target: T2, CB2 receptor
mouse osteoblasts = test: Mouse osteoblast culture (Alamar Blue); format: cell-based; conditions: 72 hours, n=3
Experimental: Osteoblasts were isolated as described above and plated at 10^4 cells/well in 96-well plates in 100 μL of αMEM supplemented with 10% FCS and antibiotics. Test substances were added after 24 hours and left for 72 hours. Cell viability was assessed using the Alamar Blue assay.

[7] = tested on: ovariectomy induced bone loss; test: Ovariectomy induced bone loss, dual energy x-ray absorptiometry; format: in vivo, C57/BL6 mice; conditions: 6 mg/kg, OVX operation, DEXA
Experimental: Animals. Female 9 week-old C57/BL6 mice. Animals were housed in a designated animal facility and routinely maintained on a 12 h:12 h light:dark cycle and given ad libitum access to food and water.
Ovariectomy induced bone loss. Bilateral ovariectomy (Ovx) was performed under general anaesthesia. Sham ovariectomy (Sham) was similarly performed but with externalisation and replacement of the ovaries. Animals were given a daily injection of (a) candidate compound (e.g., 6 mg/kg) in vehicle (corn oil), or (b) vehicle (corn oil). After 21 days, the animals were killed, and the tibial bones were dissected and used for bone mineral density measurements and histomorphometric analysis (see below).
Whole body, spine and femoral bone mineral density (BMD) and bone mineral content (BMC) were determined using a Piximus small animal DEXA scanner at the start and the end of the experiment. Daily quality assurance measurements were performed using a phantom according to the manufacturer's instructions.

osteoclasts = test: cells; format: cell-based, mice; conditions: Mus musculus, Osteoclast; TRAcP MNC and resorbed area, n=3; read-out: IC50, inhibition of osteoclast function and bone resorption
Experimental: Osteoblasts were isolated from the calvarial bones of 2-day-old mice by sequential collagenase digestion (type I collagenase, Sigma) and cultured in αMEM supplemented with 10% FCS and penicillin and streptomycin at 37° C. in 5% CO2. […] The resulting bone marrow cells were washed with PBS and resuspended in culture medium.
Osteoblasts and bone marrow cells were plated at 10^4 cells/well and 2×10^5 cells/well, respectively, in 96-well plates in 150 μL of αMEM supplemented with 10% FCS, antibiotics and 10 nM 1,25-dihydroxyvitamin D3. Test substances were added on day 7 and the cultures were terminated on day 10. At the end of the culture period, osteoclasts were identified by TRAcP staining and resorption pits were quantified by reflected light microscopy, as described above.

[8] = J774, Alamar Blue, 72 hours, n=3, read-out: IC50, J774 survival
[9] = J774 viability assay, Table 2, read-out: IC50 in J774 cells
[10] = Table 1; read-out: Ki (nM) CB2; cited from earlier work

Cc1c(C(=O)NN2CCCCC2)nn(-c2ccc(Cl)cc2Cl)c1-c1ccc(I)cc1 [AM251]
J774 viability (summary in words) [1]: inhibit | CB receptor function (CB1) (CB1 receptor [2]): CB1 inverse agonist | Classification CB1 (CB1 receptor [2]): Inverse agonist | ovariectomy-induced bone loss in a mouse model [3]: completely reverse | bone resorption (resorbed area) (rabbit osteoclasts; 10 μM (p<0.03) and 20 μM (p<0.01), 48 hours): reduced

Cc1c(C(=O)NN2CCOCC2)nn(-c2ccc(Cl)cc2Cl)c1-c1ccc(I)cc1 [AM281]
Ki (CB1 receptor [4]; Table 1): 12 nM | Classification CB1 (CB1 receptor [2]; Table 1): Inverse agonist

COc1ccc(C(=O)c2c(C)n(CCN3CCOCC3)c3cc(I)ccc23)cc1 [AM630]
J774 viability (summary in words) [1]: inhibit | IC50 [1, 8]: ~20 µM | IC50 [1, 9]: 20 µM | Classification CB2 (CB2 receptor [5]): Inverse agonist | CB receptor function (CB2) (CB2 receptor [5]): CB2 inverse agonist

CCCCC/C=C\C/C=C\C/C=C\C/C=C\CCCC(=O)NCCO [Anandamide, arachidonyl ethanolamide]
J774 viability (summary in words) [1]: inhibits | IC50 [1, 8]: ~40 µM | IC50 [1, 9]: 40 µM | effect on J774 survival ([1]; low concentrations): no effect | Classification CB2 (CB2 receptor [5]): Partial agonist | CB receptor function (CB2) (CB2 receptor [5]): CB2 partial agonist/; also recorded: antagonist

CCCCCCC(C)(C)c1ccc([C@@H]2C[C@H](O)CC[C@H]2CCCO)c(O)c1 [CP55940]
J774 viability (summary in words) [1]: do not affect | IC50 in J774 cells ([1]; J774 viability assay, Table 2): inactive | effect on J774 survival ([1]; concentrations of up to 100 μM): did not affect | CB receptor function (CB2) (CB2 receptor [5]): CB2 agonist | CB receptor function (CB1) (CB1 receptor [2]): CB1 agonist

CCCCCc1cc(O)c2c(c1)OC(C)(C)c1ccc(C)cc1-2 [Cannabinol, cannabinol]
Ki (CB2 receptor [6]; read-out: Ki (nM) CB2; Table 1; cited from earlier work): 580 nM | Classification CB2 (CB2 receptor [5]): Inverse agonist | Ki (CB1 receptor [4]): 115 nM | Classification CB1 (CB1 receptor [2]): Neutral antagonist

CCCCCOc1c(OC)ccc2cc(C(=O)NCc3ccc4c(c3)OCO4)c(=O)[nH]c12 [JTE-907, 7-Methoxy-2-oxo-8-pentyloxy-1,2-dihydro-quinoline-3-carboxylic acid (benzo[1,3]dioxol-5-yl-methyl)-amide]
IC50 [1, 8]: ~25 µM | IC50 [1, 9]: 25 µM | Classification CB2 (CB2 receptor [5]): Inverse agonist | CB receptor function (CB2) (CB2 receptor [5]): CB2 inverse agonist | Ki (CB1 receptor [4]): 684 nM | Classification CB1 (CB1 receptor [2]): Inactive | osteoblast survival (mouse osteoblasts): little activity

CCCC(C)(C)c1ccc2c(c1)OC(C)(C)[C@@H]1CC=C(C)C[C@@H]21 [JWH 133]
J774 viability (summary in words) [1]: does not affect | IC50 in J774 cells ([1]; J774 viability assay, Table 2): inactive | effect on J774 survival ([1]; concentrations of up to 20 μM): did not affect | CB receptor function (CB2) (CB2 receptor [5]): CB2-selective agonist

COc1ccc(-c2oc3cc(OC)ccc3c2C(=O)c2ccc(C#N)cc2)cc1 [LY320135]
Classification CB2 (CB2 receptor [5]): Inactive | Classification CB1 (CB1 receptor [2]; Table 1): Inverse agonist

CC1=CCC2[C@@H](C1)c1c(O)cc(CC#CCCCN=[N+]=[N-])cc1OC2(C)C (stereo partly drawn) [O1184]
Ki (CB2 receptor [6]; [10]): 7.4 nM | Classification CB2 (CB2 receptor [5]): Inverse agonist | Ki (CB1 receptor [4]; Table 1): 5.2 nM | Classification CB1 (CB1 receptor [2]; Table 1): Partial agonist

CC1=CCC2[C@@H](C1)c1c(O)cc(C/C=C\CCCN=[N+]=[N-])cc1OC2(C)C (stereo partly drawn) [O1238]
Ki (CB2 receptor [6]; [10]): 7.8 nM | Classification CB2 (CB2 receptor [5]): Partial agonist | Ki (CB1 receptor [4]; Table 1): 3.5 nM | Classification CB1 (CB1 receptor [2]; Table 1): Partial agonist

Cc1c(C(=O)NN2CCCCC2)nn(-c2ccc(Cl)cc2Cl)c1-c1ccc(Cl)cc1 [SR141716A]
Classification CB2 (CB2 receptor [5]): Inverse agonist

Cc1ccc(Cn2nc(C(=O)NC3C4(C)CCC(C4)C3(C)C)cc2-c2ccc(Cl)c(C)c2)cc1 [SR144528, 5-(4-Chloro-3-methyl-phenyl)-1-(4-methyl-benzyl)-1H-pyrazole-3-carboxylic acid ((1S)-1,3,3-trimethylbicyclo[2.2.1]hept-2endo,exo-yl)-amide]
IC50 [1, 8]: ~9 µM | IC50 [1, 9]: 9 µM | Classification CB1 (CB1 receptor [2]): Inverse agonist | ovariectomy-induced bone loss at the femoral site (femoral bone mineral content and density) [7]: very effective at reversing the bone loss | IC50 (osteoclasts): ~5 µM | ovariectomy-induced bone loss, trabecular density ([3]; 6 mg/kg daily injection, 21 days, pQCT, tibia): very effective at reversing the bone loss | ovariectomy-induced bone loss in a mouse model [3]: completely reverse | survival and resorptive activity of authentic rabbit osteoclasts (rabbit osteoclasts): inhibit | osteoblast survival (mouse osteoblasts): little activity

Cc1c(C(=O)c2cccc3ccccc23)c2cccc3c2n1[C@H](CN1CCOCC1)CO3 [WIN55212]
J774 viability (summary in words) [1]: do not affect | IC50 in J774 cells ([1]; J774 viability assay, Table 2): inactive | effect on J774 survival ([1]; concentrations of up to 100 μM): did not affect | CB receptor function (CB2) (CB2 receptor [5]): CB2 agonist

Cc1ccc(Cn2nc(C(=O)NCc3ccc4c(c3)OCO4)cc2-c2ccc(Cl)c(C)c2)cc1 [benzodioxo, 5-(4-Chloro-3-methyl-phenyl)-1-(4-methyl-benzyl)-1H-pyrazole-3-carboxylic acid (benzo[1,3]dioxol-5-yl-methyl) amide]
IC50 [1, 8]: ~15 µM

COC(=O)c1cc(-c2ccc(Cl)c(C)c2)n(Cc2ccc(C)cc2)n1 [methyl, 5-(4-Chloro-3-methyl-phenyl)-1-(4-methyl-benzyl)-1H-pyrazole-3-carboxylic acid methyl ester]
IC50 [1, 8]: ~9 µM

Cc1ccc(Cn2nc(C(=O)NN3CCCCC3)cc2-c2ccc(Cl)c(C)c2)cc1 [piperidinyl, 5-(4-Chloro-3-methyl-phenyl)-1-(4-methyl-benzyl)-1H-pyrazole-3-carboxylic acid piperidin-1-yl amide]
IC50 [1, 8]: ~15 µM

CCCCCc1cc(O)c2c(c1)OC(C)(C)[C@@H]1CCC(C)=C[C@@H]21 [Δ^9THC, Δ^9-tetrahydrocannabinol]
Classification CB2 (CB2 receptor [5]): Neutral antagonist
